Values quoted from earlier work in patent US20140030313A1, “TREATMENT OF MENSTRUAL PAIN AND EXCESSIVE MENSTRUAL BLOOD LOSS BY INTRAVAGINAL ADMINISTRATION OF A LOW DOSE OF ANTIFIBRINOLYTIC OR HEMOSTATIC AGENT IN COMBINATION WITH NON-STEROIDAL ANTI-INFLAMMATORY DRUG” (ARSTAT Inc., priority 2011, published 2014).
One block for each molecule: values may come before it.

Legend:
[1] = intravaginal tampon at 20% of the oral dose, vs oral capsules
[2] = oral, 6 g/day
[3] = not given; remark: listed apart in the source
[4] = not given; remark: listed apart in the source

Molecule: NC[C@H]1CC[C@H](C(=O)O)CC1 [Lysteda]
subjects returned to normal MBL after treatment (mean on-treatment MBL of less than 80 mL) (Lysteda NDA medical review): 44% | MBL reduction targets established by the FDA (oral, 3900 mg/day regimen): meets MBL reduction targets established by the FDA

Molecule: Cc1cccc(Nc2ccccc2C(=O)O)c1C [mefenamic acid]
pain relief [1]: pain relief equivalent to that achieved with the oral capsules

plasma concentrations ([3]; after a mouth rinse): below 2 mcg/mL | saliva concentrations, maximum level ([3]; after a mouth rinse): above 200 mcg/mL | time saliva concentration remained at a therapeutic level ([3]; after a mouth rinse): more than two hours | drug in saliva samples ([3]; after an oral tablet): not detected | mean drug plasma concentrations ([3]; after an oral tablet): 7000 ng/mL
Molecule: NC[C@H]1CC[C@H](C(=O)O)CC1 [tranexamic acid]
risk of gastrointestinal adverse events [2]: increased | difference to placebo in reduction of large stains, small and large clots and changes in serum ferritin levels (tranexamic acid vs placebo treatment): no statistically significant differences | incidence of postoperative bleeding complications ([4]; mouthwash, compared to placebo): reduce the incidence of postoperative bleeding complications

Molecule: aprotinin
plasma drug levels ([4]; locally administered): without detectable plasma drug levels | postoperative blood loss ([4]; locally administered): Reduction of the postoperative blood loss
